Columns and labels:
Test in all cases: biochemical
[1] = molecular target: ALK (Homo sapiens, UniProt Q9UM73); parameters: SelectScreen Z'-LYTE purified kinase panel, per cent inhibition, mean of two points; settings: (μM)=Km app
[2] = molecular target: ABL1 E255K (Homo sapiens, UniProt P00519, E255K); parameters: SelectScreen Z'-LYTE purified kinase panel, per cent inhibition, mean of two points; settings: (μM)=Km app
[3] = molecular target: T1, LYN A (Homo sapiens, UniProt P07948); parameters: SelectScreen Z'-LYTE purified kinase panel, per cent inhibition, mean of two points; settings: (μM)=Km app
T1 construct: isoform A
T1 sequence (P07948 whole entry, canonical isoform): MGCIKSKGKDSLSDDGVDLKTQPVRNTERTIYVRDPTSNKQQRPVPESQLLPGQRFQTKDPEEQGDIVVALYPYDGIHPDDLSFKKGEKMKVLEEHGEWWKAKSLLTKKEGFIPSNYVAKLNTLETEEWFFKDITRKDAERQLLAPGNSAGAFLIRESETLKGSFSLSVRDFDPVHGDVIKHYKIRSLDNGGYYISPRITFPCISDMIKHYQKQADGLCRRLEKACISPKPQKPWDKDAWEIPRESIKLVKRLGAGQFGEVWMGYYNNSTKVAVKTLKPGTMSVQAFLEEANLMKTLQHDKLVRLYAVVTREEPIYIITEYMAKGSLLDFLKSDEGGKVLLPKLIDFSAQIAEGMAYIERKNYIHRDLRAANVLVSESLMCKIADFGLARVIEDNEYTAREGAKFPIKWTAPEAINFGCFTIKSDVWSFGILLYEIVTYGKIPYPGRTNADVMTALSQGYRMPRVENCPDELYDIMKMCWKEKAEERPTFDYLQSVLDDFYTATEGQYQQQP

[4] = molecular target: PKN1 (PRK1) (Homo sapiens, UniProt Q16512); parameters: SelectScreen Z'-LYTE purified kinase panel, per cent inhibition, mean of two points; settings: (μM)=Km app
PKN1 (PRK1), sequence (Q16512 whole entry): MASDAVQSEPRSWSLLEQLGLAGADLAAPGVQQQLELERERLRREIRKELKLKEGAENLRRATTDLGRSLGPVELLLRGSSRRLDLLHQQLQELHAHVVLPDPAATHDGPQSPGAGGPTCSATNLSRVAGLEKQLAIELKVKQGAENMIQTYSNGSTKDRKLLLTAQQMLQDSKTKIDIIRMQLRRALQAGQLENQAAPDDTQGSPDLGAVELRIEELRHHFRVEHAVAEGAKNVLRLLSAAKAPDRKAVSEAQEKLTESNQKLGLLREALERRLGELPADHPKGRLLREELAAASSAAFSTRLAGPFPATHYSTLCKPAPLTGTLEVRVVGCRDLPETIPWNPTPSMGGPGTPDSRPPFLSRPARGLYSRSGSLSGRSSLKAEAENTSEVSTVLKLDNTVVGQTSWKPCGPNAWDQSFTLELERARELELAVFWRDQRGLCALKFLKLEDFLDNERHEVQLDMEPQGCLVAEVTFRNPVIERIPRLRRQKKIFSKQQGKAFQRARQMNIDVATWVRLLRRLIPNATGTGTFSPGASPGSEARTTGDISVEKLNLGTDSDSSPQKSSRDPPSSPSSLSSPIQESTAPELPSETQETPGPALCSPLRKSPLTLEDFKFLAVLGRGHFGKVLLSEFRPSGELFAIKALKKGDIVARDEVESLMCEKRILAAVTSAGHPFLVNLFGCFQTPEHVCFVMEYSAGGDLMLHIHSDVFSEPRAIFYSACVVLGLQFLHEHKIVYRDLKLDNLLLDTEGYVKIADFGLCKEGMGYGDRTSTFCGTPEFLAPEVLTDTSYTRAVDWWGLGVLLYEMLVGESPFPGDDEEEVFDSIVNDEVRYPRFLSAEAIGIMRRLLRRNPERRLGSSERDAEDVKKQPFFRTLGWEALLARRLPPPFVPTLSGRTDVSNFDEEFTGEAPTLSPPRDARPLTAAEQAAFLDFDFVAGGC

[5] = molecular target: PDGFRB (PDGFR beta) (Homo sapiens, UniProt P09619); parameters: SelectScreen Z'-LYTE purified kinase panel, per cent inhibition, mean of two points; settings: (μM)=Km app
PDGFRB (PDGFR beta), sequence (P09619 whole entry): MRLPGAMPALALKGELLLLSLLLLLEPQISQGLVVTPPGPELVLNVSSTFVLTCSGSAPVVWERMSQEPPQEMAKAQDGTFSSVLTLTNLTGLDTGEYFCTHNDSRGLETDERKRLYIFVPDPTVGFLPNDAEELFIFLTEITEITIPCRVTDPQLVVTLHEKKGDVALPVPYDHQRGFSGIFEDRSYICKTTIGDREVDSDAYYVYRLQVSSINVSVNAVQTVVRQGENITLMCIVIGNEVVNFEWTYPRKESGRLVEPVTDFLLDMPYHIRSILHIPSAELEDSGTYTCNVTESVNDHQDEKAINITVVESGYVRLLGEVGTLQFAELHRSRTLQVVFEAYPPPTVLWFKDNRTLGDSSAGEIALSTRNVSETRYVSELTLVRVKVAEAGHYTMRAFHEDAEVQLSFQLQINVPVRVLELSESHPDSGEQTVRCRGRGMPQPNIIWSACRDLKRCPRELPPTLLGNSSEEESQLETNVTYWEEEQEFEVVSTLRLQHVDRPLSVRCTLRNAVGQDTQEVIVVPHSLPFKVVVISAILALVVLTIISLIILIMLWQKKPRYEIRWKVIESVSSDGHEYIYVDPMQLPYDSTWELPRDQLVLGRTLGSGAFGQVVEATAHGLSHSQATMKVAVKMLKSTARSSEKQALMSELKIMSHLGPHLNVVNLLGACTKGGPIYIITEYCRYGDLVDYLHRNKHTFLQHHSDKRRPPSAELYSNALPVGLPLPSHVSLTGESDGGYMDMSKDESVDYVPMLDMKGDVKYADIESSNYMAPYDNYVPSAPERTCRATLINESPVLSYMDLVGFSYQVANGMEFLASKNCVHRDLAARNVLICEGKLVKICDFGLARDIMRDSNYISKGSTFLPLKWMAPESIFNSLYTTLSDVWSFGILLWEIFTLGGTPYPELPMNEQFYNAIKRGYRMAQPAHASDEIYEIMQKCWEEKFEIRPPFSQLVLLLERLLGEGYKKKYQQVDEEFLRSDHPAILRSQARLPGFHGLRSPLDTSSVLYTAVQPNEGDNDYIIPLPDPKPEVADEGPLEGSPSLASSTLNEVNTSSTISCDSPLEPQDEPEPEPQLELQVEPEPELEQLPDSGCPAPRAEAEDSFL

[6] = molecular target: T2, PDK1 (Homo sapiens, UniProt O15530); parameters: SelectScreen Z'-LYTE purified kinase panel, per cent inhibition, mean of two points; settings: (μM)=100
T2 construct: gene PDPK1
T2 sequence (O15530 1-556): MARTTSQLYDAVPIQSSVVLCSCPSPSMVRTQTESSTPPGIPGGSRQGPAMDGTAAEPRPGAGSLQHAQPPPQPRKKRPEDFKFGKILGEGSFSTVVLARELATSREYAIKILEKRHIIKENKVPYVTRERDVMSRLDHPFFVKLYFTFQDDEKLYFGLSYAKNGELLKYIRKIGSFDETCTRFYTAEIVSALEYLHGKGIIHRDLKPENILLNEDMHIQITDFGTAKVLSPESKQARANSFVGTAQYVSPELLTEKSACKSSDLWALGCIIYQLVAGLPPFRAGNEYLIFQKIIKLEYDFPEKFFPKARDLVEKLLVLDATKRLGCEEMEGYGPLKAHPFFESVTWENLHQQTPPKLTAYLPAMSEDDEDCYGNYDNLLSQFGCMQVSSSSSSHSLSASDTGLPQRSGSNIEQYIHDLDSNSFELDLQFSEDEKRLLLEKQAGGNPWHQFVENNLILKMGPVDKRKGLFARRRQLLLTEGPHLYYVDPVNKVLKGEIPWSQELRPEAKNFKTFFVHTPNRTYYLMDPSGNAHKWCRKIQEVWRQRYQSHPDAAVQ

[7] = molecular target: PI4KB (PI4K beta) (Homo sapiens, UniProt Q9UBF8); parameters: SelectScreen Adapta purified lipid kinase panel, 1 uM compound, 10 uM ATP, per cent inhibition; settings: ATP=10; Technology=Adapta; 10 uM ATP
Method: (§1) As PI3KC2α is related to other PI3Ks and to PI3K-like protein kinases such as mTOR, the selectivity of PITCOINs was determined in a panel of biochemical assays. […] Finally, the high specificity of PITCOINs for PI3KC2α was verified by Kinobead profiling experiments. In this approach, the ability of PITCOINs to compete the affinity capture of cellular kinases on immobilized nonselective kinase inhibitors (Kinobeads) is analyzed by mass spectrometry (MS)[31]. […] Four nonkinase weak off-targets were globally found for the three inhibitors with only FECH[32] common to the three PITCOINs (Supplementary Dataset).  Extended Data Fig. 2 Lipid kinase inhibitor profile of PITCOIN1-3. (a–c) Selectivity profiling of PITCOIN1-3 (1 µM) with purified lipid kinases in the presence of 10 µM ATP. […] Data are presented as mean ± SD from two independent experiments. (d, e) IC50 measurements of PITCOIN1-3 against purified recombinant class I PI3K p110α/p85α (d) or purified class III PI3K VPS34 complex II (e). 10 µM ATP and 20 µM PIP3 (for p110α/p85α) or 200 µM PI (for VPS34 complex II) were used as substrates. […] Data are presented as mean ± SD from two independent experiments. Source data

[8] = molecular target: PIK3CA/PIK3R3 (p110 alpha/p55 gamma) (Homo sapiens, UniProt P42336); parameters: SelectScreen Adapta purified lipid kinase panel, 1 uM compound, 10 uM ATP, per cent inhibition; settings: ATP=10; Technology=Adapta; 10 uM ATP
Method: as §1

[9] = molecular target: PIK3CA E545K/PIK3R1 (p110 alpha E545K/p85 alpha) (Homo sapiens, UniProt P42336, E545K); parameters: SelectScreen Adapta purified lipid kinase panel, 1 uM compound, 10 uM ATP, per cent inhibition; settings: ATP=10; Technology=Adapta; 10 uM ATP
PIK3CA E545K/PIK3R1 (p110 alpha E545K/p85 alpha), sequence (P42336 whole entry E545K): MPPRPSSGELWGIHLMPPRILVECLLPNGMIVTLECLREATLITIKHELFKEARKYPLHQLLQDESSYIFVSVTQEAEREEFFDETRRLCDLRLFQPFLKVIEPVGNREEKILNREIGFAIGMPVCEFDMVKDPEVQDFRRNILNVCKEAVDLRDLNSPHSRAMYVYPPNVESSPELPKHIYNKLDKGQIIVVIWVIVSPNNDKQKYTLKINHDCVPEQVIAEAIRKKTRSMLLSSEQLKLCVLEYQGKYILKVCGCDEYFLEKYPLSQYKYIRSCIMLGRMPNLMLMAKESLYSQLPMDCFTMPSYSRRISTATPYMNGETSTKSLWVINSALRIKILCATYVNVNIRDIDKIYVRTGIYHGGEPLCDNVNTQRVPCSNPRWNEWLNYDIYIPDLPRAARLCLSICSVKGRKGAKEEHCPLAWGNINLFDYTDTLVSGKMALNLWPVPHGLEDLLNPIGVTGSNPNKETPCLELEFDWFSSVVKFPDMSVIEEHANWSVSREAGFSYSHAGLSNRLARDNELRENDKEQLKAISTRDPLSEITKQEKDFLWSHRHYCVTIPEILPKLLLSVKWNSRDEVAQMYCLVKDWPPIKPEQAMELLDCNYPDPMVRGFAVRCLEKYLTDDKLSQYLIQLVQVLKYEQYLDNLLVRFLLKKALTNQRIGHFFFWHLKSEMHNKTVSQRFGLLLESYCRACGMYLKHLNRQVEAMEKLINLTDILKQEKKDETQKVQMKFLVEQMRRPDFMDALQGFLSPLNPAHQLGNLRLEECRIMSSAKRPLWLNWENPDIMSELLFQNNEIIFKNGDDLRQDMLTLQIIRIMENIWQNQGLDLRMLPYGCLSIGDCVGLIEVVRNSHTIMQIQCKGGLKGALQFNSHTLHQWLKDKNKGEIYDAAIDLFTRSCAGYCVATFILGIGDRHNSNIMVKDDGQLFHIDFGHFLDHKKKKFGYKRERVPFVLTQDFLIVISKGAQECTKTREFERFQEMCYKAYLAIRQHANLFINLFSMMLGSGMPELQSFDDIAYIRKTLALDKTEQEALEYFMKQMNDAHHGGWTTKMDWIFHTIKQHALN
PIK3CA E545K/PIK3R1 (p110 alpha E545K/p85 alpha), sequence (P27986 whole entry partner): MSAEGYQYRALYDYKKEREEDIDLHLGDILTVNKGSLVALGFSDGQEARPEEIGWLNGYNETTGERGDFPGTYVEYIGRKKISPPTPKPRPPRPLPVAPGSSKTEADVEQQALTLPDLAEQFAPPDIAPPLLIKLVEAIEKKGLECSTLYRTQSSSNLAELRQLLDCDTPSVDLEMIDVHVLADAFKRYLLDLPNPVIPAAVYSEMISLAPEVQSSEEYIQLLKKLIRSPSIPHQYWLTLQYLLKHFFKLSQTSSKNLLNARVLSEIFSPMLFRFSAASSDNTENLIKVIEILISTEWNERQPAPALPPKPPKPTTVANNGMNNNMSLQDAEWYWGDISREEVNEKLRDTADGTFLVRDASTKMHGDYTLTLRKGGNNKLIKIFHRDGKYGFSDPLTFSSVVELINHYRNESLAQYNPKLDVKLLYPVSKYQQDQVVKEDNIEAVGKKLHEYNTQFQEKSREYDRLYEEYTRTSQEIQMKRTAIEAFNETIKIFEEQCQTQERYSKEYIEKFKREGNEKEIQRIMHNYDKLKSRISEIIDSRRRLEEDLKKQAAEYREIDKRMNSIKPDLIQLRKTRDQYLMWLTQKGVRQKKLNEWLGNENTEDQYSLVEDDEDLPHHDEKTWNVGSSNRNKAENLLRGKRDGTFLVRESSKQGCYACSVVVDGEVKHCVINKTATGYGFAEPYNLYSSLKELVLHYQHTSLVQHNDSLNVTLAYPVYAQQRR
Method: as §1

[10] = molecular target: PIP5K1A (Homo sapiens, UniProt Q99755); parameters: SelectScreen Adapta purified lipid kinase panel, 1 uM compound, 10 uM ATP, per cent inhibition; settings: ATP=10; Technology=Adapta; 10 uM ATP
PIP5K1A, sequence (Q99755 whole entry): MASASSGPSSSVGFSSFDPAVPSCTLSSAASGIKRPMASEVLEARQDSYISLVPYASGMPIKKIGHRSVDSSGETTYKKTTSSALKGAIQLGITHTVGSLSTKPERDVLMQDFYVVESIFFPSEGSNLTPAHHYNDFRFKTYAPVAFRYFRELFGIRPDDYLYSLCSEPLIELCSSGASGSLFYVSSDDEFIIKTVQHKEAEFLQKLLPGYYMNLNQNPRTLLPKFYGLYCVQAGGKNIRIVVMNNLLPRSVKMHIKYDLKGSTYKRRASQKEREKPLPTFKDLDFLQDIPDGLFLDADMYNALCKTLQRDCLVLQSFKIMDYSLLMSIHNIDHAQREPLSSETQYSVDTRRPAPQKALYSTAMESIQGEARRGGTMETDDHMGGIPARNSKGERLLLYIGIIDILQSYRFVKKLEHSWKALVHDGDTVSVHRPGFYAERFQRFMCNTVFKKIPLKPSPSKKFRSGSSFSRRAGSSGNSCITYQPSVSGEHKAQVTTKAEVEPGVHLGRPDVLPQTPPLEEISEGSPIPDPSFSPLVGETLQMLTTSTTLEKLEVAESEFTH
Method: as §1

Row | inhibition at 1 µM [1] | inhibition at 3 µM [1] | inhibition at 10 µM [1] | inhibition at 1 µM [2] | inhibition at 3 µM [2] | inhibition at 10 µM [2] | inhibition at 1 µM [3] | inhibition at 3 µM [3] | inhibition at 10 µM [3] | inhibition at 1 µM [4] | inhibition at 3 µM [4] | inhibition at 10 µM [4] | inhibition at 1 µM [5] | inhibition at 3 µM [5] | inhibition at 10 µM [5] | inhibition at 1 µM [6] | inhibition at 1 µM [7] | inhibition at 1 µM [8] | inhibition at 1 µM [9] | inhibition at 1 µM [10] | SMILES | also measured
1 | 17.2% | 10.4% | 10.9% | -1.49% | 2.48% | -1.01% | 1.87% | 2.86% | 1.59% | 2.88% | -5.53% | 4.05% | 4.69% | -3.18% | 1.91% | 9.47% | 13% | 5% | 4% | -7% | CS(=O)(=O)Nc1cccc(-c2csc(NC(=O)CSc3nc4nccnc4c(=O)n3CCc3ccccc3)n2)c1 [compound 3, PITCOIN3] | inhibition at 3 µM [6]: 5.91%; inhibition at 10 µM [6]: 10.5%
2 | 8.08% | 8.57% | 8.82% | -2.31% | -1.35% | -2.49% | 2.62% | 1.7% | 2.95% | 8.46% | 1.84% | -4.65% | -2.01% | -3.23% | 6.51% | 8.23% | 4% | -6% | 2% | 4% | O=C(CSc1nc2nccnc2c(=O)n1CCc1ccccc1)Nc1nccs1 [compound 1, PITCOIN1] | inhibition at 3 µM [6]: 7.27%; inhibition at 10 µM [6]: 6.69%
3 |  |  |  |  |  |  |  |  |  |  |  |  |  |  |  |  | 3% | -10% | 0% | -6% | O=C(CSc1nc2nccnc2c(=O)n1CCc1ccccc1)Nc1nc(-c2cccc(O)c2)cs1 [compound 2, PITCOIN2] | 

Reference: publication PMC7613998, “Development of selective inhibitors of phosphatidylinositol 3-kinase C2α” (Nature Chemical Biology, 2022)
